What was measured:
Assay in all cases: whole-cell patch clamp, mechanically activated current block
Type in all cases: cell-based
mPiezo1 [1] = biological target: T1, mPiezo1 (Mus musculus, UniProt E2JF22, E2133D); details: -80 mV; extracellular RR; pH 7.3; room temperature
T1 construct: gene Piezo1; full length, 2547 residues, IRES-EGFP pcDNA3.1(-) vector, transfected HEK293T

mPiezo1 [2] = biological target: T2, mPiezo1 (Mus musculus, UniProt E2JF22); details: -80 mV; extracellular RR; pH 7.3; room temperature; voltage-dependent pore block
T2 construct: gene Piezo1; full length, 2547 residues, IRES-EGFP pcDNA3.1(-) vector, transfected HEK293T

mPiezo1 [3] = biological target: T3, mPiezo1 (Mus musculus, UniProt E2JF22, E2133Q); details: -80 mV; extracellular RR; pH 7.3; room temperature
T3 construct: gene Piezo1; full length, 2547 residues, IRES-EGFP pcDNA3.1(-) vector, transfected HEK293T

mPiezo1 [4] = biological target: T4, mPiezo1 (Mus musculus, UniProt E2JF22, E2133K); details: -80 mV; extracellular RR; pH 7.3; room temperature
T4 construct: gene Piezo1; full length, 2547 residues, IRES-EGFP pcDNA3.1(-) vector, transfected HEK293T

mPiezo2 [5] = biological target: T5, mPiezo2 (Mus musculus, UniProt Q8CD54, E2416K); details: -80 mV; extracellular RR; pH 7.3; room temperature
T5 construct: gene Piezo2; full length, pCMV-Sport6 vector (printed for the E2416K mutant), transfected HEK293T

mPiezo2 [6] = biological target: T6, mPiezo2 (Mus musculus, UniProt Q8CD54); details: -80 mV; extracellular RR; pH 7.3; room temperature
T6 construct: gene Piezo2; full length, pCMV-Sport6 vector (printed for the E2416K mutant), transfected HEK293T

T4 sequence (E2JF22 whole entry E2133K): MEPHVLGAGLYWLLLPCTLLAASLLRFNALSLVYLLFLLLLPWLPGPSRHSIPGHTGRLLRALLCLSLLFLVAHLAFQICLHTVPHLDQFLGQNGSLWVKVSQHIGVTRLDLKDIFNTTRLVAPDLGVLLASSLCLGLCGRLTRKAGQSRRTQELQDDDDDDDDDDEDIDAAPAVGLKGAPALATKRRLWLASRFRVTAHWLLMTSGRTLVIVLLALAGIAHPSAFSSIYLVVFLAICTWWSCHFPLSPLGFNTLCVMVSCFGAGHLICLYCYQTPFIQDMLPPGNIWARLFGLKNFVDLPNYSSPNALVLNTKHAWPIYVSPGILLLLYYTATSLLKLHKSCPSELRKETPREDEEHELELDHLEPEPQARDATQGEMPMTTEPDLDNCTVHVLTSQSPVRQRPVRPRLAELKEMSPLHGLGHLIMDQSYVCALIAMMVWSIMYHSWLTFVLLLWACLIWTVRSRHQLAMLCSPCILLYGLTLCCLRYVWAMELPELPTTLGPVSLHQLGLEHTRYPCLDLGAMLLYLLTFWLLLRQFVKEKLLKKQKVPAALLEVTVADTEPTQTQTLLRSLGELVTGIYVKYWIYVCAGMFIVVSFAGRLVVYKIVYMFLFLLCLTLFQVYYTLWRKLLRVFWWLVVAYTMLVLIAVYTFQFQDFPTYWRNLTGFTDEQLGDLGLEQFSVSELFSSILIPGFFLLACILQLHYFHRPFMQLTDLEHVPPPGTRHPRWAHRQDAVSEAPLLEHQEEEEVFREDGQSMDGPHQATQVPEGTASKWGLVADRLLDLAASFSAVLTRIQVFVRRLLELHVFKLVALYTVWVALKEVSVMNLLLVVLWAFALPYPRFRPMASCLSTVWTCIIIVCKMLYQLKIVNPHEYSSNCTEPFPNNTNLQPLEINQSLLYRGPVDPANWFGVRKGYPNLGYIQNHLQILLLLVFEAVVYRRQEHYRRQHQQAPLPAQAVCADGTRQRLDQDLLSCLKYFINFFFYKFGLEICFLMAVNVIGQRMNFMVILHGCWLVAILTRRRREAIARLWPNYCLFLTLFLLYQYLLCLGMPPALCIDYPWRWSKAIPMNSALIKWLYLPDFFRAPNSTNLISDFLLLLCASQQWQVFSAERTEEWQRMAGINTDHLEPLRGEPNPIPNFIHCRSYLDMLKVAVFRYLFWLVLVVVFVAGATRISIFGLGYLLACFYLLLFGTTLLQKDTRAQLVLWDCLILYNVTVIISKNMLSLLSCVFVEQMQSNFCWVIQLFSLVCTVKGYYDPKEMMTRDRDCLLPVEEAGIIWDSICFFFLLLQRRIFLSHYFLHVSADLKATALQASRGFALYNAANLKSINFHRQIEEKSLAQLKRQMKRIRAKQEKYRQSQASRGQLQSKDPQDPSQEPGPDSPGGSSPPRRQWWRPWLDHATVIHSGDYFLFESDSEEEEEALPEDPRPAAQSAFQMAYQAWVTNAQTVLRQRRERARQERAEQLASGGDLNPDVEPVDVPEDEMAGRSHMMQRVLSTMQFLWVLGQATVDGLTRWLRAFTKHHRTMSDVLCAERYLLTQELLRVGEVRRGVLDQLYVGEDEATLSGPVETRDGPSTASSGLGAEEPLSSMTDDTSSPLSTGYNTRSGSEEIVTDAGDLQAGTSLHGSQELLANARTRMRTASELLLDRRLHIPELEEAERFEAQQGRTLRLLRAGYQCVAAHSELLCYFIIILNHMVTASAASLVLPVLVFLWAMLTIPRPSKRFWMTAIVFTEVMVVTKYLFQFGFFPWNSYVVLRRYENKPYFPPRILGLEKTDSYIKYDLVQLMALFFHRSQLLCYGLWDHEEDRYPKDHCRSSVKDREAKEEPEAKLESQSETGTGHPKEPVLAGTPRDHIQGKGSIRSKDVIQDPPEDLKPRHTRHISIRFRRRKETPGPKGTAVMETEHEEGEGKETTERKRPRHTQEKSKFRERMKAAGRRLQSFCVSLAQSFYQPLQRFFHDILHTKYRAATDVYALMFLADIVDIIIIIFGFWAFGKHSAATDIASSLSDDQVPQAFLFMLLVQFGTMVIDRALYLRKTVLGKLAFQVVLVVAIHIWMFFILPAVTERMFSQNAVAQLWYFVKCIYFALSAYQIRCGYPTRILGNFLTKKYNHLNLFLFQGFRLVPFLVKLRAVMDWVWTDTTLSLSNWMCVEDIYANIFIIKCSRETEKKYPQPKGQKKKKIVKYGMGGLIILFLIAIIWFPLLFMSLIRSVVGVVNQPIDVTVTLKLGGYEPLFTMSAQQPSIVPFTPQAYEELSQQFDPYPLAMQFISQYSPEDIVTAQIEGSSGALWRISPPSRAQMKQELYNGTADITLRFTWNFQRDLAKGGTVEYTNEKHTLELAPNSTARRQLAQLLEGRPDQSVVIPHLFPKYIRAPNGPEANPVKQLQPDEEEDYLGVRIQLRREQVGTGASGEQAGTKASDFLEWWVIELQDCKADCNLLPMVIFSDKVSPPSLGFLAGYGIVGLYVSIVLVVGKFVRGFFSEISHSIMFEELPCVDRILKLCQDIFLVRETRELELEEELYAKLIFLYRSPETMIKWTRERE
T2 sequence (E2JF22 whole entry): as the sequence (E2JF22 whole entry E2133K) above, with K2133E counted along it
T3 sequence (E2JF22 whole entry E2133Q): as the sequence (E2JF22 whole entry E2133K) above, with K2133Q counted along it
T1 sequence (E2JF22 whole entry E2133D): as the sequence (E2JF22 whole entry E2133K) above, with K2133D counted along it

## N.N.N.N.N.N.N.N.N.N.N.N.N.N.[Cl-].[Cl-].[Cl-].[Cl-].[Cl-].[Cl-].[O-2].[O-2].[Ru+3].[Ru+3].[Ru+4] [ruthenium red]
mPiezo1 [1]
  IC50: 1260 ± 280 nM
mPiezo1 [2]
  IC50: 4.71 ± 0.83 µM
mPiezo1 [3]
  IC50: 5.62 ± 1.27 µM
mPiezo1 [4]
  % block at 30 μM: 8.1±7.1%
mPiezo2 [5]
  % block at 30 μM: 49.6±4.6%
mPiezo2 [6]
  % block at 30 μM: 70.8±1.4%

Source: article PMC4445471, “Piezo1 ion channel pore properties are dictated by C-terminal region” (Nature Communications, 2015)
